One series has as its system HLA-A2.1. The series is described as follows: HLA-A2.1 cell surface expression in RMA-S-A2.1 cells (FACS). In kind it is cell-based, human. The settings on record: for Increase of HLA-A2.1-specific fluorescence intensity: RMA-S-A2.1 cells, 50 micromoles per liter peptide, 37 C overnight, FITC anti-HLA-A2.1. The method, then:
Cells were pooled from the duplicate cultures and about 1×10^6 cells were incubated with 2 micrograms per milliliter fluorescein isothiocyanate-labelled anti-HLA-A2.1 antibody (catalogue number 32294x, PharMingen) at 4° C. for 30 min. Fluorescence-activated cell sorting (FACS) analysis was performed on a FACScan (Becton-Dickinson). About ten thousand events were collected and analyzed by CELLQuest software (version 1.2.2, BD Biosciences).

Series [1] concerns P815 murine mastocytoma cells. The series is described as follows: Chromium release assay: CTL from peptide-immunized BALB/c mice against peptide-contacted P815 cells. In kind it is cell-based, mouse. The note with it: for CTL response cytotoxic to target cells displaying the peptide (specific lysis): BALB/c mice immunized with 30 micrograms peptide + OVAp in DOTAP liposomes, targets contacted with same peptide and interferon-gamma. As for the experimental part:
The test peptides p 1 and p2 were evaluated for the ability to elicit in mice a cytotoxic T-lymphocyte response to naturally presented immunoglobulin E peptides. Eight-week old BALB/c mice in groups of four were each immunized with 30 micrograms of one of the test peptides p1 or p2, together with 30 micrograms of the co-stimulatory factor OVAp (ovalbumin peptide) (Schimokevitz, 1984, J. Immunol., 133:2067), an oligopeptide consisting of the sequence […](SEQ ID NO. 3), in N-[1-(-2,3-dioleoyloxy)propyl]-N,N,N-trimethylammonium methylsulfate (DOTAP, purchased from Boehringer Mannheim, Indianapolis, Ind.) cationic liposomes. Two weeks after the first immunization, mice in each respective group were immunized a second time with the appropriate test peptide (p1 or p2) that had been used in the initial immunization. Two weeks after the second immunization, 5×10^6 spleen cells were removed from a pool of two to four mice, established in vitro, and re-stimulated with the respective test peptide in vitro for seven days. The cytotoxic T-lymphocytes thus obtained were tested using a standard chromium release assay (Colligan et al. 2002, Current Protocols in Immunology, 3.11) for their ability as effector cells to lyse target cells. The target cells consisted of P815 murine mastocytoma cells that had been contacted with the appropriate test peptide (p1 or p2) and treated overnight with 50 units per milliliter interferon-gamma to facilitate processing of the test peptide. Effector cells (E) and target cells (T) were mixed at different E/T ratios for 4 hours. The specific lysis was determined by the following formula: [(experimental release−spontaneous release)/(maximal release−spontaneous release)]×100.
The test peptide p3 was similarly evaluated for the ability to elicit a cytotoxic T-lymphocyte response in mice to naturally processed and presented immunoglobulin E peptides. […] The specific lysis was determined by the following formula: [(experimental release−spontaneous release)/(maximal release−spontaneous release)]×100.

In series [2] the test system is murine EL-4 lymphoma cells. The series is described as follows: Chromium release assay: CTL from immunized C57BL/6 mice against p4-contacted EL-4 cells. In kind it is cell-based, mouse. The settings on record: C57BL/6 mice immunized with p4 with OVAp; p4-contacted EL-4 targets. The text has this:
Groups consisting each of five C57BL/6 mice were immunized with either 30 micrograms of the test peptide p4 with 30 micrograms of the co-stimulatory factor OVAp, or with 30 micrograms of the test peptide p5 delivered in 30 micrograms DOTAP liposomes. Two weeks after the first immunization, mice in each respective group were immunized a second time with the appropriate test peptide formulation (p4 plus OVAp, or p5 in DOTAP liposomes) that had been used in the initial immunization. Two weeks after the second immunization, 5×10^6 spleen cells were removed from a pool of two to four mice, established in vitro, and re-stimulated with the appropriate test peptide (p4 or p5) in vitro for seven days. The cytotoxic T-lymphocytes thus obtained were tested using a standard chromium release assay for their ability as effector cells to lyse target cells. The target cells consisted of murine EL-4 lymphoma cells, which display the major histocompatibility complex class I molecules H-2K^b and H-2D^b, and that had been contacted with the test peptide p4 and treated overnight with 50 units per milliliter interferon-gamma. Effector cells (E) and target cells (T) were mixed at different E/T ratios for 4 hours. The specific lysis was determined by the following formula: [(experimental release−spontaneous release)/(maximal release−spontaneous release)]×100.

In series [3] the test system is LPS and IL-4 stimulated B-lymphocyte cultures. The series is described as follows: Polyclonal IgE production by LPS and IL-4 stimulated B-lymphocyte cultures with CTL (ELISA). In kind it is cell-based, mouse. The note with it: CTL from mice immunized with only OVAp in DOTAP liposomes. The method, then: In a second experiment, BALB/c splenic B-lymphocytes were enriched by magnetic beads coated with an antibody against the B-lymphocyte-specific cell surface antigen B220. To assess CTL effects on polyclonal IgE production, 3×10^5 normal B-lymphocytes were added to either 3×10^6 p3-activated spleen cells from mice immunized with test peptide p3 together with the co-stimulatory factor OVAp in DOTAP liposomes, or to 3×10^6 p3-activated spleen cells from mice immunized with only the co-stimulatory factor OVAp in DOTAP liposomes as a control. The co-cultures were then stimulated with 20 micrograms per milliliter lipopolysaccharide (LPS) and 250 units per milliliter murine recombinant interleukin-4 (IL-4). Two days later, the culture supernatants were harvested. Immunoglobulin E levels were determined using a commercial double-sandwich ELISA assay (catalogue number 2655KI, PharMingen).

Another series has as its system KLH-specific IgE. Description: Allergen-specific (KLH-specific) IgE in vivo by passive cutaneous anaphylaxis (PCA). The arrangement: species or system mouse. The settings on record: BALB/c mice immunized with only OVAp in liposomes, KLH/alum challenge; pooled blood. As for the experimental part:
In a third experiment, the effect of immunoglobulin E peptide immunization on production of allergen-specific IgE in vivo was determined. Adult BALB/c mice (5/group) were immunized twice with either the test peptide p3 or the test peptide p1, together with the co-stimulatory factor OVAp in DOTAP liposomes, or with only the co-stimulatory factor OVAp in DOTAP liposomes. Mice immunized with saline served as control. Seven days after the second immunization, mice were challenged with 1 microgram keyhole limpet hemocyanin (KLH) in 2 milligrams alum intraperitoneally four times at a 10 day interval, and the allergen-specific (KLH-specific) IgE in pooled blood was then determined by passive cutaneous anaphylaxis (PCA) reaction. […] Reduction of allergen-specific PCA correlated directly with the elicitation of IgE peptide-specific cytotoxic T-lymphocytes in vitro (as depicted in FIG. 3B).

Square brackets hold non-standard residues; d marks the D form. Ends that are not written are not given here. Vat = not defined here

As to LLTVSGAWA [539.8], in the series with HLA-A2.1 (RMA-S-A2.1 cells incubated with peptide in presence versus absence of human beta-2 microglobulin), the “effect of exogenous human beta-2 microglobulin on surface expression of HLA-A2.1” value is given as “did not substantially enhance surface expression of HLA-A2.1”. Moreover, the “Increase of HLA-A2.1-specific fluorescence intensity” value (“Increase” below) with HLA-A2.1 is reported as “one log”.

As for QLPDARHST [539.9], the “Increase” value in the series on HLA-A2.1 is listed as “one log”.

Take LYCFIYGHI [p1]: the “CTL response cytotoxic to target cells displaying the peptide (specific lysis)” value in series [1] is recorded as “able to elicit a CTL response”.

For the substance “Ile Gln Leu Tyr Cys Phe Ile Try Gly His Ile Leu Asn Asp Val Ser Val (IQLYCFIYGHILNDVSV; Mouse (Mus musculus)) [p4]”, the “immunoglobulin E-specific CTL response” value in series [2] is recorded as “comparable levels of immunoglobulin E-specific CTL response”.

“Trp Val Asp Asn Lys Thr Phe Ser Vat (WVDNKTFS[Vat]; reading uncertain; also: printed as Trp Val Asp Asn Lys Thr Phe Ser Vat) [539.12]”: the “Increase” value in the series with HLA-A2.1 was “one log”.

Consider TQSPSVFPL [539.10], for which the “Increase” value in the series with HLA-A2.1 was “one log”.

In the case of “ISQAVHAAHAEINEAGR [OVAp, co-stimulatory factor]”, the “CTL response against p3-treated P815 target cells” value in series [1] (BALB/c mice immunized with OVAp in liposomes only) is recorded as “did not induce a substantial CTL-response”. The “immunoglobulin E production in vitro” value in series [3] is listed as “did not decrease immunoglobulin E production”. Further, the “KLH-specific IgE PCA titre” value with KLH-specific IgE is recorded as 160.

Take “IYGHILNDV [p2, lie Tyr Gly His li0e Leu Asn Asp Val]”: in series [1], the “CTL response cytotoxic to target cells displaying the peptide (specific lysis)” value was “able to elicit a CTL response”.

For the substance WLSDRTYTC [539.11], in the series on HLA-A2.1, the “Increase” value is on record as “one log”.

These data come from patent US7604955B2, “Immunoglobulin E vaccines and methods of use thereof” (priority 2001, dated 2009).
